In PubChem BioAssay (NCI) one finds TGI data, which are given here for 15 compounds.

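Where inhibition never reached the appropriate level, the endpoint shown equals the highest concentration tested. Otherwise, values were interpolated linearly from a five-concentration, 48-hour dose response in 96-well plates. TGI: concentration producing complete growth inhibition.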 Some results are limits rather than exact numbers.

Experiment in all cases: inhibition of tumour cell growth, NCI panel, 48 h
For assay [1], the system named is SK-MEL-28 melanoma.
Assay [2] has as its system M14 melanoma.
The test system of assay [3] is CAKI-1 renal.
Assay [4] relates to KM12 colon.
Assay [5] has as its system SNB-75 CNS.
The test system of assay [6] is SK-MEL-2 melanoma.
Assay [7] deals with OVCAR-5 ovarian.
The test system of assay [8] is SK-MEL-5 melanoma.
Assay [9] has as its system U251 CNS.
Assay [10] has as its system SF-539 CNS.

`O=C(Cn1c2ccc(Br)cc2c2nc3ccccc3nc21)N1CCOCC1`: the TGI in assay [1], in assay [2], in [3], in [4], in assay [5] and in assay [6] was more than 100 µM throughout. For the same compound, the TGI in assay [7], in assay [8] and in assay [9] was more than 100 µM throughout.
Take `O=c1[nH]c(Br)nc2n[nH]nc12`: the TGI is more than 100 µM in [2]; more than 100 µM in assay [3]; more than 100 µM in assay [4]; more than 100 µM in [5]; 94.9 µM in [10]; more than 100 µM in [6]. In addition, the TGI in assay [7], in assay [8] and in assay [9] was more than 100 µM each time.
As to `CCOC(=O)c1cc(C2CCN(Cc3ccccc3)C2=O)c(C(=O)/C=C(/C)N)[nH]1` (centres undefined), the TGI in [1], in [2], in assay [3], in [4], in assay [5] and in assay [6] was more than 100 µM each time. In addition, the TGI in assay [7], in assay [8] and in [9] was more than 100 µM throughout.
For the compound `O=C(O)CCC1(CCC(=O)O)CCCCCCCCC(CCC(=O)O)(CCC(=O)O)C(=O)C1=O`, the TGI in [1], in [2], in assay [3], in [4], in assay [5] and in assay [10] was more than 100 µM each time. Besides, the TGI in assay [6], in [7] and in assay [9] was more than 100 µM each time.
Take `Cc1ccc(/C=C2\CCS(=O)(=O)c3ccccc3C2=O)cc1`: the TGI in assay [1] was 39.1 µM; in assay [2], 73.6 µM; in [3], 33.2 µM; in assay [4], 30.6 µM; in [5], 32.9 µM; in assay [10], more than 100 µM. Also, the TGI in assay [6] was found to be 44 µM; in assay [7] it was 90.7 µM; in [9], 30.8 µM.
On to `CC(c1ccccc1)n1c2ccccc2c2c(N)ncnc21` (centres undefined), for which the TGI in assay [1] worked out at 33.8 µM; in [2], 34.1 µM; in assay [3], 62.2 µM; in [5] it was 9.19 µM; in assay [10], 30.8 µM; in assay [6] it was 45.3 µM. The TGI in [7] was found to be 37.9 µM; in [8] it was 33.9 µM; in assay [9] it was 30.5 µM.
Turning to `Clc1ccc2c(c1)CC1C[N+]3=C(CCCCC3)C1=C2` (centres undefined), the TGI in assay [1] was more than 100 µM; in assay [2] it was more than 100 µM; in [3], more than 100 µM; in [4], more than 100 µM; in [5], 4.56 µM; in assay [6] it was 97 µM. For the same compound, the TGI in assay [7], in [8] and in assay [9] was more than 100 µM throughout.
Regarding `Cc1nnc(N)nc1C/C=C/C(C)Sc1ccc(Cl)cc1` (centres undefined), the TGI in [1] worked out at 45 µM; in [2], 26 µM; in assay [3] it was 33.9 µM; in [4], 20.7 µM; in assay [5] it was 19.2 µM; in assay [6] it was 30.6 µM. Moreover, the values for the TGI in [7], in assay [8] and in [9] were 36.9 µM, 22.9 µM and more than 42 µM, respectively.
Regarding `Cc1cc2nc3c(C#N)c4c(c(Cl)n3c2cc1C)CCC4`, the TGI in [1] was 88.9 µM; in assay [3], 35.9 µM; in [4], more than 100 µM; in assay [5], more than 100 µM; in assay [10] it was 49.5 µM; in [7], 77.8 µM. The TGI in [8] was found to be 50.1 µM; in assay [9] it was 30.4 µM.
Turning to `COc1cc(C2SCC(=O)N2c2ccc(Cl)cc2)cc(OC)c1OC` (centres undefined), the TGI was more than 100 µM in [1]; more than 57.8 µM in assay [2]; more than 100 µM in assay [3]; more than 82.8 µM in assay [4]; more than 100 µM in assay [5]; more than 100 µM in [10]. Moreover, the TGI in assay [6], in assay [8] and in [9] was more than 100 µM in each case.
As for `CC1=NC(=O)CNN1C1=NNC2(C(=O)N1)c1ccccc1-c1ccccc12`, the TGI in [1], in assay [2], in assay [3], in [5], in assay [10] and in assay [6] was more than 100 µM each time. Besides, the TGI in [7], in assay [8] and in assay [9] was more than 100 µM throughout.
Consider `O=C1/C(=C/c2cccc([N+](=O)[O-])c2)Cc2ccccc21`, for which the TGI in assay [1], in [2], in [3], in assay [4], in [5] and in assay [10] was more than 100 µM throughout. For the same compound, the TGI in assay [6], in assay [7] and in assay [9] was more than 100 µM each time.
For `CC(C)(CN1CCCCC1)C(=O)CC(SCCS(=O)(=O)O)c1ccccc1` (centres undefined), the TGI was 26 µM in assay [2]; 34.9 µM in assay [3]; 44.8 µM in [4]; 54.9 µM in assay [5]; 60.3 µM in assay [10]; 96.5 µM in [6]. In addition, the values for the TGI in [7], in [8] and in assay [9] were 27 µM, 31.4 µM and 53.2 µM, respectively.
With `C=C1C(=O)O[C@H]2C1C[C@H](O)/C(C)=C/CC[C@@]1(C)O[C@H]21` (some centres undefined), the TGI in assay [1] was 38.7 µM; in assay [2], 23.9 µM; in assay [3] it was 28.4 µM; in [4], 30.1 µM; in assay [5], more than 100 µM; in assay [6], 39.9 µM. In addition, the TGI in assay [7] was 33.9 µM; in assay [8], 22.6 µM; in assay [9], more than 100 µM.
For `O=C(O)c1ccc(Nc2nc3ccc(C(F)(F)F)cc3nc2-c2ccccc2)cc1`, the TGI in [1] is more than 100 µM; in [2], more than 100 µM; in assay [3] it was more than 100 µM; in assay [4], more than 10 µM; in assay [5] it was more than 100 µM; in assay [10], 90.8 µM. The TGI in assay [7], in [8] and in assay [9] was more than 100 µM throughout.
